A short description of data set [1]: In vitro human skin permeation study of topical gel formulations (Franz diffusion cells). It is filed as in vitro ADME. The settings on record: Study-4, saturated gel, human skin.
Experiment in data set [2]: as above
It is filed as in vitro ADME. As to conditions: saturated gel formulations, skin flux experiments. From the text:
The gel formulation of Example 8 was used as the donor phase to determine the permeation of Compound 1.002 through human skin and its effectiveness as a topical application. Three skin donors and three diffusion cells (for each donor) per formulation were used in the in vitro skin permeation experiments. Split thickness dermatomed (approximately at […] thickness) human cadaver skin, supplied by New York Firefighters Skin Bank, NY, was used to determine the permeation rate of the tested compound (i.e., the drug) in vitro. All in vitro skin permeation studies were conducted using the Vertical Diffusion Cells assembly with consoles (Model FDC-6), and heating controllers (Logan Instruments Inc. Somerset, NJ). Each assembly consisted of six vertical, jacketed (37° C.±0.5° C.) 12-mL Franz diffusion cells with magnetic stirrer and 1.767 cm^2 diffusion area.
Skin flux studies were run for a period of 48 hours. At predetermined intervals (2, 4, 8, 24 and 48 hours) after starting the experiment, the entire contents of the receiver compartment were collected for determining concentrations of the drug by HPLC. The receiver compartment was refilled with fresh receiver medium. The receiver medium was pH 7.4 phosphate buffer with 0.5 mg/ml of Oleath 20 with the saturation concentration of the drug in the receptor medium being 0.152 mg/ml. This solubility of the drug in the receiver medium was enough to ensure sink conditions throughout each collection interval.
Samples of the receptor phase were obtained at 2, 4, 8, 12, 24 and 48 h and concentrations of Compound 1.002 and 3-(4-morpholinothieno(3,2-d)pyrimidin-2-yl)phenol (metabolite of Compound 1.002, abbreviated as MTPP) were determined using a validated HPLC method. The metabolism of Compound 1.002 to MTPP takes place in the human skin by esterase enzymes.
HPLC method: Column—Gemini C-18 4.6×150 mm, 5 μm particle size; Mobile Phase—water:acetonitrile 25:75 containing 0.1% TFA; Flow Rate—1 mL/min; Detection—274 nm; Column Temperature—40° C.; and Run Time—10 min. The retention times for MTPP and Compound 1.002 were 3.9 and 7.2 minutes, respectively.
The skin flux of drugs and cumulative amount of drugs permeated (sum of MTPP and Compound 1.002) for a period of 48 hours were calculated and are shown in Table 3. FIG. 3 represents a plot of Cumulative amount permeated versus time.

Data set [3] in a line: Accelerated stability study of topical gel formulations at 80° C. As to conditions: gel formulation, 3 days. It is filed as physicochemical.
Experiment in data set [4]: as above
As to conditions: for Stability in gel formulation: 80° C. for 10 days; for percent hydrolysis to the parent compound MTPP: gel formulation, 80° C. It is filed as physicochemical. The method, then: Topical gel formulations were prepared using excipients as shown in Table 2 according to Example 8, in which Compounds 1.002, 1.012, and 1.006 were used as the active ingredient, respectively. These gel formulations were subjected to stability study at 80° C. for 10 days. Stability under the condition of at 80° C. for 10 days is expected to be approximately equivalent to the stability for three (3) years at room temperature. A relative purity of the tested compound after being exposed for 5 days and 10 days at 80° C. was determined by HPLC, as compared to its initial purity (at day 0).
The values shown in the table are percent hydrolysis of the respective compounds to the parent compound MTPP.
Topical gel formulations of Compound 1.002 were prepared using excipients as shown in Table 2 according to Example 8, in which the content of oleic acid varied at 1%, 2%, 5%, and 10%, respectively. These gel formulations were subjected to stability study at 80° C. for 10 days, which is expected to be approximately equivalent to the stability for three (3) years at room temperature. A purity of the tested compound on day 0, 5, 7, and 10 at 80° C. was determined by HPLC. The detected impurity of the tested compound appears to be the hydrolysis product, as MTPP. Table 17 represents stability data of Compound 1.002 in topical formulations having oleic acid at various contents.
Gel formulations of Example 17 were subjected to stability study at 80° C. for 10 days. Stability under the condition of at 80° C. for 10 days is expected to be approximately equivalent to the stability for three (3) years at room temperature. A relative purity of Compound 1.002 after being exposed for 5 days and 10 days at 80° C. was determined by HPLC, as compared to its initial purity (at day 0).

A further data set deals with T1, PI3K (p110a(E542K)/p85a) (Homo sapiens, UniProt P42336, E542K).
T1 construct: purchased Reaction Biology Corporation (RBC)
Kind of data set: Lipid kinase inhibitory activity, ADP-Glo. As to conditions: α E542K. It is filed as biochemical. On the procedure: (§1) Lipid kinases: Lipid kinases from Reaction Biology Corporation (RBC) in ADP-Glo format were used.
(§2) Assay Description: The kinase reactions utilized ATP and produced ADP as a byproduct. The ADP production was quantified by ADP-Glo luminescence detection. This assay was a 3-step reaction. First, the kinase reaction with lipid substrate was carried out in the presence of ATP, and the reaction was quenched and depleted remaining ATP with ADP-Glo™ reagent, and then finally ADP was converted to ATP which was measured using a luciferase/luciferin reaction.
(§3) Assay Procedure: The assay was performed according to the steps as follows: • 1. Preparing substrate in freshly prepared reaction buffer; • 2. Delivering kinase into the substrate solution and gently mixing; • 3. Delivering compounds in […] into the kinase reaction mixture by Acoustic technology (Echo550; nanoliter range), incubating for 20 minutes at room temperature; • 4. Delivering ATP into the reaction mixture to initiate the reaction; • 5. Incubating for 30 minutes at 30° C.; • 6. Quenching the reaction with ADP-Glo reagent and incubating for 40 minutes; • 7. Adding Detection Mixture and incubating for 30 minutes; and • 8. Measuring luminescence.
(§4) Data Analysis: The luminescence was converted into μM ADP production based on ADP standard curves. The nonlinear regression to obtain the standard curve and IC50 values were performed using Graphpad Prism software.

The target in a further data set is T2, PI3K (p110a(E545K)/p85a) (Homo sapiens, UniProt P42336, E545K).
T2 construct: purchased Reaction Biology Corporation (RBC)
As to the kind of experiment: Lipid kinase inhibitory activity, ADP-Glo. It is filed as biochemical. The settings on record: α E545K. On the procedure: as §1, §2, §3, §4
(ADP-Glo turns the ADP formed in a reaction into a luminescent signal.)

The target of a further data set is T3, PI3Kb (p110b/p85a) (Homo sapiens, UniProt P42338).
T3 construct: purchased Reaction Biology Corporation (RBC)
As to the kind of experiment: Lipid kinase inhibitory activity, ADP-Glo. It is filed as biochemical. The settings on record: β. On the procedure: as §1, §2, §3, §4

The next data set addresses T4, PI3Ka (p110a/p85a) (Homo sapiens, UniProt P42336).
T4 construct: purchased Reaction Biology Corporation (RBC)
Kind of data set: Lipid kinase inhibitory activity, ADP-Glo. It is filed as biochemical. The settings on record: α. On the procedure: as §1, §2, §3, §4

For data set [5], the target named is T5, PI3K (p110a(H1047R)/p85a) (Homo sapiens, UniProt P42336, H1047R).
T5 construct: purchased Reaction Biology Corporation (RBC)
As to the kind of experiment: Lipid kinase inhibitory activity, ADP-Glo. It is filed as biochemical. The settings on record: α H1047R. On the procedure:
as §1, §2, §3, §4

For the next data set, the target named is T6, PI3Kd (p110d/p85a) (Homo sapiens, UniProt O00329).
T6 construct: purchased Reaction Biology Corporation (RBC)
Kind of data set: Lipid kinase inhibitory activity, ADP-Glo. It is filed as biochemical. The settings on record: δ. The method, then:
as §1, §2, §3, §4

The target of another data set is T7, PI3Kg (p110g) (Homo sapiens, UniProt P48736).
T7 construct: purchased Reaction Biology Corporation (RBC)
As to the kind of experiment: Lipid kinase inhibitory activity, ADP-Glo. The settings on record: γ. It is filed as biochemical. The method, then:
as §1, §2, §3, §4

The target of another data set is T8, MTOR/FRAP1 (Homo sapiens, UniProt P42345).
T8 construct: purchased Reaction Biology Corporation (RBC)
As to the kind of experiment: Lipid kinase inhibitory activity, ADP-Glo. It is filed as biochemical. The method, then:
as §1, §2, §3, §4

Structures are written as SMILES.

T2 sequence (P42336 whole entry E545K): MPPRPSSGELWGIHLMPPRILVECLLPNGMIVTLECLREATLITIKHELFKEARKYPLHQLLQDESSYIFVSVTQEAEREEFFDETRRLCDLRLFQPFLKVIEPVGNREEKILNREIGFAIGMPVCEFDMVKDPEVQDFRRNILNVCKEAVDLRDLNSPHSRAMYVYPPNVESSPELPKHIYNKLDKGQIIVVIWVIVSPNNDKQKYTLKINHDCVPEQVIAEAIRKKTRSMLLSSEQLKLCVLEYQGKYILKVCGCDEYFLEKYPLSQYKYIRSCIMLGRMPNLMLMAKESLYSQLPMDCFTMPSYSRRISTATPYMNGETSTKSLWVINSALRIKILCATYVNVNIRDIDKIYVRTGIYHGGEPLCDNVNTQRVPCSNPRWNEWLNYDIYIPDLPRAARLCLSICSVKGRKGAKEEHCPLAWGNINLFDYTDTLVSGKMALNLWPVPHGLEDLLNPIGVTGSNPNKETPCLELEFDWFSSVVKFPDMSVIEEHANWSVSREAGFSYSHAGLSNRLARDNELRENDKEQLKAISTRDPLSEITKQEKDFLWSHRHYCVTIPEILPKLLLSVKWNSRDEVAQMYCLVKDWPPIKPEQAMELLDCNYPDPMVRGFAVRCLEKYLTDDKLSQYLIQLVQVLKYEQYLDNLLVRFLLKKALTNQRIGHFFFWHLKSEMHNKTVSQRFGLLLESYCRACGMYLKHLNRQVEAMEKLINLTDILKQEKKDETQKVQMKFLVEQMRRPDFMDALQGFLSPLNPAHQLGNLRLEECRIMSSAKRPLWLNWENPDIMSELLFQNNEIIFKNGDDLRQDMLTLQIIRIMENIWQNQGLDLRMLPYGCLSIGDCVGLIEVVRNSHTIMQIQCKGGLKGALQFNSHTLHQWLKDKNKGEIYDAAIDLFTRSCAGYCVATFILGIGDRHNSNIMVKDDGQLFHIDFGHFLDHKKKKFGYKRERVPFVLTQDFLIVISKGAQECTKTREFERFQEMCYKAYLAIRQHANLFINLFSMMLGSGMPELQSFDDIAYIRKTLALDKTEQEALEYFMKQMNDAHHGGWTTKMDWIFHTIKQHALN
T2 sequence (P27986 whole entry partner): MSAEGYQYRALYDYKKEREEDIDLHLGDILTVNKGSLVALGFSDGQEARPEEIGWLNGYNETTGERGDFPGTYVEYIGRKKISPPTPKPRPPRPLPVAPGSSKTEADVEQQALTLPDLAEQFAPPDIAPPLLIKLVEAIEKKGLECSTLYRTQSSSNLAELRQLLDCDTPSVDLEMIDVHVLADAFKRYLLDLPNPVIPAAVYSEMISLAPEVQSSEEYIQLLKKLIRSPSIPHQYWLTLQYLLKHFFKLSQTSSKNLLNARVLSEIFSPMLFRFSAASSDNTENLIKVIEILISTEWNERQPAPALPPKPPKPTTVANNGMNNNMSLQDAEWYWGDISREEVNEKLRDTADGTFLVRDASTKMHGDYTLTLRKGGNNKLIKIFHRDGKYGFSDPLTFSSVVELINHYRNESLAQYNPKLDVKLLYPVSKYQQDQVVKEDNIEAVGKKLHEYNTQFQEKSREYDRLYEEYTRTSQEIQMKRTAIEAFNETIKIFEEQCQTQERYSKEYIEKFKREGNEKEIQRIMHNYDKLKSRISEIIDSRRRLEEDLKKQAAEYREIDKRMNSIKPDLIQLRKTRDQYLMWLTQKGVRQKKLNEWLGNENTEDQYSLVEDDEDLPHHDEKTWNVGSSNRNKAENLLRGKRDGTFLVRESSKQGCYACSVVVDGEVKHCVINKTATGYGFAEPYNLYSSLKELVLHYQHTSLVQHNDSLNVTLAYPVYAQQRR
T5 sequence (P42336 whole entry H1047R): as the sequence (P42336 whole entry E545K) above, with K545E, H1047R counted along it
T5 sequence (P27986 whole entry partner): as the sequence (P27986 whole entry partner) above
T6 sequence (O00329 whole entry): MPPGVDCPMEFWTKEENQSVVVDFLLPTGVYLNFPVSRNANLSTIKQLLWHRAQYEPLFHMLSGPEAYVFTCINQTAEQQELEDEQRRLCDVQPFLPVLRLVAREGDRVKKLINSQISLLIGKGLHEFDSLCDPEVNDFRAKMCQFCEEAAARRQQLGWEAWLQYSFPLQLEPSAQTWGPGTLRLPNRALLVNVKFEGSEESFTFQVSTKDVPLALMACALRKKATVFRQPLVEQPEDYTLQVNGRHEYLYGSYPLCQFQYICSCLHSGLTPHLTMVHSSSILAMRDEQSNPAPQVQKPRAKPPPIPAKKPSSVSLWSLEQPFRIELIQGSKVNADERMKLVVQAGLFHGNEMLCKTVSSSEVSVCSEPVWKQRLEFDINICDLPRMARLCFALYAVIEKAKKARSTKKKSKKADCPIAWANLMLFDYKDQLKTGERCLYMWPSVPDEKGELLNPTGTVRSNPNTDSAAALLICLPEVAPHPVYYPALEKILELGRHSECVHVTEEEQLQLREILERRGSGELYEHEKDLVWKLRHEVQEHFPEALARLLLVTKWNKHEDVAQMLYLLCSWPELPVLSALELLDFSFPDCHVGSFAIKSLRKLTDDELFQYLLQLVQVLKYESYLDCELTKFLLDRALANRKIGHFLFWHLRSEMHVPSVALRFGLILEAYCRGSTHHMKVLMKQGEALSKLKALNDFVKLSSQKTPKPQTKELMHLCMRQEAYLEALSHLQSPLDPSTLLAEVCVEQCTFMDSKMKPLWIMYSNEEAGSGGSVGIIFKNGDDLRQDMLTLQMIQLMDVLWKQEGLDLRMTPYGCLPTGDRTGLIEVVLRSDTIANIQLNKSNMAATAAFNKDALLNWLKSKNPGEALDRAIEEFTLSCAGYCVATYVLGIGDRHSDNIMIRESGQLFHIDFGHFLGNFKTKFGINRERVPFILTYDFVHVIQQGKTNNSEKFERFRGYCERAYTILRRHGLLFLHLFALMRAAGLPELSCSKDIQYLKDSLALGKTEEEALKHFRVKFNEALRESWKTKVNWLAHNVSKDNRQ
T6 sequence (P27986 whole entry partner): as the sequence (P27986 whole entry partner) above
T4 sequence (P42336 whole entry): as the sequence (P42336 whole entry E545K) above, with K545E counted along it
T4 sequence (P27986 whole entry partner): as the sequence (P27986 whole entry partner) above
T7 sequence (P48736 whole entry): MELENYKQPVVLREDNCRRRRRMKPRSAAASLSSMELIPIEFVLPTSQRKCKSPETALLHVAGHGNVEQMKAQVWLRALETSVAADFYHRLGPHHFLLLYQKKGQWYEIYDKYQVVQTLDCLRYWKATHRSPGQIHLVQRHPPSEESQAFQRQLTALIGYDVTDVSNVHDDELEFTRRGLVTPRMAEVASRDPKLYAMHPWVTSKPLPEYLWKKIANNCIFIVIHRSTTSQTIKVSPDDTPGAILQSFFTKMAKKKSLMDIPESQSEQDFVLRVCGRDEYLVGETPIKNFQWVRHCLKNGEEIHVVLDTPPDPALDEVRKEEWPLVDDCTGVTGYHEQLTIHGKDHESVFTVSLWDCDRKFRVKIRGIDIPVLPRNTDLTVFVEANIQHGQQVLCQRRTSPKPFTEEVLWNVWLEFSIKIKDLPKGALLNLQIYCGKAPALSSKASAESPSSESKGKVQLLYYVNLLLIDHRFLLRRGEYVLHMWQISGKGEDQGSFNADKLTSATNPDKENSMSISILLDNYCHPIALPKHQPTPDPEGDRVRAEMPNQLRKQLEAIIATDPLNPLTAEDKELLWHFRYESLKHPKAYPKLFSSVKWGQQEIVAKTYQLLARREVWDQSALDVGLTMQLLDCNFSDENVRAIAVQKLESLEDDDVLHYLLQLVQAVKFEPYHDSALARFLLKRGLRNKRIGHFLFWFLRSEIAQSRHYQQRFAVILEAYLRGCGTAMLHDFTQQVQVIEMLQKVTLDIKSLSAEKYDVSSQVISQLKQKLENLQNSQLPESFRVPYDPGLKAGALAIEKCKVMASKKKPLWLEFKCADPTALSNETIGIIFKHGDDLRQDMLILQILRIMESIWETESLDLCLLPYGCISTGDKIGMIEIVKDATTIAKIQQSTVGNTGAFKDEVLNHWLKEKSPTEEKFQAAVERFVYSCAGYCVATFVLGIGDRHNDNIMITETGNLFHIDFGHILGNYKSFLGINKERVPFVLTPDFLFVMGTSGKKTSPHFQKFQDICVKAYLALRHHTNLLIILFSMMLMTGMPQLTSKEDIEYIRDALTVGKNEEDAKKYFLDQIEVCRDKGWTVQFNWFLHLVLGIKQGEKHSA
T1 sequence (P42336 whole entry E542K): as the sequence (P42336 whole entry E545K) above, with E542K, K545E counted along it
T1 sequence (P27986 whole entry partner): as the sequence (P27986 whole entry partner) above

As for `COc1cccc(-c2nc(N3CCOCC3)c3sccc3n2)c1` [Compound 1.001, 4-(2-(3-Methoxyphenyl)thieno[3,2-d]pyrimidin-4-yl)morpholine], the “Cumulative permeation (intact compound)” value in data set [1] (2 h) was found to be 0.0 μg/cm^2; in data set [1] (4 h) it was 10.2 μg/cm^2; in data set [1] (8 h) it was 51.8 μg/cm^2; in [1] (24 h), 202.1 μg/cm^2; in [1] (48 h), 260.4 μg/cm^2. Also, the “Hydrolysis of Cmpd. 1.001 to MTPP” value in data set [1] (2 h), in [1] (4 h), in data set [1] (8 h), in data set [1] (24 h) and in data set [1] (48 h) was 0.0 throughout. For the same compound, the “Metabolism to MTPP during permeation through human skin” value in data set [2] was “appeared not to metabolize to MTPP”.
In the case of `CCCCCCCCCC(=O)Oc1cccc(-c2nc(N3CCOCC3)c3sccc3n2)c1` [Compound 1.008, 3-(4-Morpholinothieno[3,2-d]pyrimidin-2-yl)phenyl Decanoate], the “percent hydrolysis to the parent compound MTPP” value (shortened to “percent hydrolysis”) was 0.20% in data set [3]; 0.00% in data set [4] (0 days); 0.28% in data set [4] (5 days); 0.39% in [4] (7 days); 0.56% in [4] (10 days). The “Stability in gel formulation” value in data set [4] is “very stable”.
Regarding `CCCCCCCC/C=C\CCCCCCCC(=O)Oc1cccc(-c2nc(N3CCOCC3)c3sccc3n2)c1` [Compound 1.011, 3-(4-Morpholinothieno[3,2-d]pyrimidin-2-yl)phenyl Oleate], the “percent hydrolysis” value in data set [3] came out at 0.18%; in data set [4] (0 days) it was 0.09%; in [4] (5 days), 0.24%; in data set [4] (7 days), 0.33%; in data set [4] (10 days) it was 0.43%. For the same compound, the “Stability in gel formulation” value in data set [4] is “very stable”.
Regarding `O=C(/C=C/c1ccccc1)Oc1cccc(-c2nc(N3CCOCC3)c3sccc3n2)c1` [Compound 1.014, 3-(4-Morpholinothieno[3,2-d]pyrimidin-2-yl)phenyl Cinnamate], the “percent hydrolysis” value in data set [3] is on record as 1.32%; in data set [4] (0 days) it was 0.00%; in data set [4] (5 days), 2.09%; in data set [4] (7 days), 2.43%; in data set [4] (10 days) it was 2.94%. For the same compound, the “Stability in gel formulation” value in data set [4] was “very stable”.
On to `CC(=O)OCc1cccc(-c2nc(N3CCOCC3)c3sccc3n2)c1` [Compound 1.015, 3-(4-Morpholinothieno[3,2-d]pyrimidin-2-yl)benzyl acetate], for which the IC50 (usually the concentration at which inhibition is half-maximal) is 3690 nM against PI3K (p110a(E542K)/p85a); 4310 nM on PI3K (p110a(E545K)/p85a); 5590 nM on PI3Kb (p110b/p85a); 1930 nM on PI3Ka (p110a/p85a); 3110 nM in data set [5]; 714 nM against PI3Kd (p110d/p85a). The IC50 on PI3Kg (p110g) came out at 131 nM; against MTOR/FRAP1, 3320 nM.
As for `OCc1cccc(-c2nc(N3CCOCC3)c3sccc3n2)c1` [MTPPM, (3-(4-morpholinothieno[3,2-d]pyrimidin-2-yl)phenyl)methanol, reference compound], the half-inhibitory concentration (IC50) against PI3K (p110a(E542K)/p85a) came out at 9 nM; against PI3K (p110a(E545K)/p85a), 9.8 nM; against PI3Kb (p110b/p85a) it was 56 nM; at PI3Ka (p110a/p85a), 7 nM; in data set [5] it was 7.8 nM; on PI3Kd (p110d/p85a), 17 nM. The 50% inhibitory concentration (IC50) against PI3Kg (p110g) stood at 61 nM; against MTOR/FRAP1, 113 nM.

(Values after patent US12522614B2, “Topical phosphoinositide 3-kinase inhibitors” (VENTHERA, INC., priority 2019, dated 2026).)
